Where two headings read alike, the source gives them in different places.
Legend:
[1] = test system: pancreatic cancer PDX tumors; experiment: Static PET imaging in pancreatic cancer PDX-bearing mice; assay type: in vivo; settings: for tumor area under the curve relative to FAPI-04: ^86Y PET tumor SUVmean curve; for peak tumor SUVmean / time of peak tumor SUVmean after injection: ^86Y PET
Experimental: (§1) All animal care and experimental procedures were performed by following the animal protocols (CCME-LiuZB-2) approved by the ethics committee of Peking University. The mice were from the Beijing Vital River Laboratory Animal Technology Co., Ltd. For cell-line–derived xenograft models, 5 × 10^6 HT-1080-FAP or HT-1080 cells were subcutaneously inoculated into the right shoulder of 6-wk-old female nu/nu-mice. To establish the patient-derived xenograft (PDX) model, tumor specimens were obtained from patients who underwent presurgical ^68Ga-FAPI-04 PET/CT imaging to confirm that the tumor was FAP-positive. After surgical resection, the tumor specimens were immediately placed in ready-to-use fresh tissue preservation solution (TM2701-100) and transported under refrigerated conditions within 2 h. The research protocol was approved by the Institutional Ethics Committee of Peking Union Medical College Hospital (JS-2628). Six-week-old female nonobese diabetic/severe combined immunodeficiency (NOD/SCID) mice were used to establish the PDX models. After being removed from the preservation solution, the tumor specimens were immediately immersed in sterile PBS solution and minced with scissors, and the fragments were then implanted subcutaneously into the left and right shoulders of the mice, which were anesthetized with isoflurane in advance. Engraftment efficiency was determined by ^68Ga-FAPI-04 PET/CT imaging (Supplemental Fig. 21A).
All PET scans were performed on a Mediso nanoScan PET 122S small-animal PET/CT imaging system. For the 60-min dynamic PET scan, 29.6–37.0 MBq of ^68Ga-TEFAPI-06 or ^68Ga-TEFAPI-07 were given to healthy NOD/SCID mice through tail-vein injection. The static PET imaging was performed on mice bearing pancreatic PDX tumors, HT-1080-FAP tumors, and HT-1080 tumors at the indicated time points after intravenous injection of 7.4–11.1 MBq of ^86Y-FAPI-04,^86Y-TEFAPI-06, or ^86Y-TEFAPI-07.

FAP [2] = biological target: T1, FAP (Homo sapiens, UniProt Q12884); experiment: Saturation binding assay of ^68Ga-labeled tracers in HT-1080-FAP and HT-1080 cells; design: host or cells: HT-1080 human fibrosarcoma cells (HT-1080-FAP)
T1 sequence (Q12884 1-760): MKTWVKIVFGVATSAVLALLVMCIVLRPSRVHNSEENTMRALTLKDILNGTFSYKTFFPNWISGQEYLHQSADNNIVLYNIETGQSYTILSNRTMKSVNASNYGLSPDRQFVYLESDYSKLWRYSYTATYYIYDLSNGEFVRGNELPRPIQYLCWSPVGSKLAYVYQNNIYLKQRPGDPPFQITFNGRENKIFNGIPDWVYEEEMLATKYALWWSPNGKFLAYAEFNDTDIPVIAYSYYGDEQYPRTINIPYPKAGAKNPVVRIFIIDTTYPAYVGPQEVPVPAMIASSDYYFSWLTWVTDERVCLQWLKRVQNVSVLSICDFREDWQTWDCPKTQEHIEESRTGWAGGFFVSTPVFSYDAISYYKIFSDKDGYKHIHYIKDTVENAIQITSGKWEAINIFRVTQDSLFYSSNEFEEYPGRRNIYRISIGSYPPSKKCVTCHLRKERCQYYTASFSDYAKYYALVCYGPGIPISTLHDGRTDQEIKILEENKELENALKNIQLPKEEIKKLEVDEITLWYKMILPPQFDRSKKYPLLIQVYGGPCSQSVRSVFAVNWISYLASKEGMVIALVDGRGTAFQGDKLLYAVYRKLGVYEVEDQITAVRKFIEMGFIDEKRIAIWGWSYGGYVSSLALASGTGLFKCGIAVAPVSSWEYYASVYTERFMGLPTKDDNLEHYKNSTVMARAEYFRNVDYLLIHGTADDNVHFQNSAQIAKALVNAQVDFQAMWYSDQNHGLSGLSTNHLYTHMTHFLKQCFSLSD
Experimental: (§2) The human fibrosarcoma cell line (HT-1080), and the HT-1080 cell line transfected with human FAP gene (HT-1080-FAP, from WuXi AppTec), were cultivated in Eagle minimum essential medium containing 10% fetal bovine serum, 1% antibiotic–antimycotic, and a 4 μg/mL concentration of blasticidin S at 37°C under conditions of 5% carbon dioxide. For competition assays, HT-1080-FAP cells were seeded in 6-well plates and cultivated until they reached about 1.2 × 10^6 cells per well. The cells were incubated simultaneously with unlabeled FAPI-04, TEFAPI-06, or TEFAPI-07 (10^−5–10^−9 M) with ^68Ga-FAPI-04 in 1 mL of fresh medium without fetal bovine serum for 1 h. The medium was removed, and the cells were washed twice with phosphate-buffered saline (PBS). Subsequently, the cells were lysed with 0.5 mL of 1 M NaOH and washed with 0.5 mL of PBS twice, and the NaOH (0.5 mL) and PBS (0.5 mL × 2) were collected to determine the uptake counts. For saturation binding assays, HT-1080-FAP and HT-1080 cells were seeded in 24-well plates and cultivated until they reached about 2 × 10^5 cells per well. ^68Ga-FAPI-04, ^68Ga-TEFAPI-06, or ^68Ga-TEFAPI-07 was diluted to a concentration 0.01–200 nM in fresh medium without fetal bovine serum. The cells were incubated in the above solution for 1 h and then washed twice with PBS. The lysed cells and the PBS for washing were collected to determine the counts.

FAP [3] = biological target: T1, FAP; experiment: Competition assay against ^68Ga-FAPI-04 in HT-1080-FAP cells; assay type: binding; design: host or cells: HT-1080 human fibrosarcoma cells (HT-1080-FAP)
Experimental: as §2

FAP [4] = biological target: T1, FAP; experiment: Blocking study in vivo with cold ligand; design: from tissue; host or cells: tumour in tumour-bearing mice; species or system mice; settings: 12 h and 24 h after treatment with cold ligand
[5] = Dynamic PET imaging in healthy NOD/SCID mice (heart/blood signal); assay type: in vivo; settings: for time of peak signal in heart after injection: dynamic PET
HT-1080-FAP cells = experiment: Cellular uptake assay in HT-1080-FAP cells; assay type: cell-based, human
HT-1080 cells = experiment: Cellular uptake assay in HT-1080 cells; assay type: cell-based, human; settings: HT-1080 cells (FAP-negative)
Experimental: as §2

[6] = test system: HT-1080-FAP and HT-1080 tumors; experiment: PET imaging of HT-1080-FAP and HT-1080 tumor-bearing mice; assay type: in vivo; settings: ^86Y PET, tumor-bearing nu/nu mice
Experimental: as §1, with “After being removed from the preservation solution, the tumor specimens were immediately immersed in sterile PBS solution and minced with scissors, and the fragments were then implanted subcutaneously into the left and right shoulders of the mice, which were anesthetized with isoflurane in advance.” left out, “21A). […]” for “21A).”

[7] = ^68Ga-labeled tracer, 0.01-200 nM, 1 h, medium without FBS, read-out: dissociation constant (Kd)
[8] = binding assays in 0.05% human serum albumin, sentence prints 'in the absence of albumin', read-out: dissociation constant, binding assays in 0.05% human serum albumin
[9] = 0.05% human serum albumin, read-out: half-maximal inhibitory concentration in the presence of albumin
[10] = HT-1080-FAP cells, unlabeled ligand vs ^68Ga-FAPI-04, 1 h, medium without FBS, read-out: half-maximal inhibitory concentration (IC50)

SMILES	tumor area under the curve relative to FAPI-04 [1]	Kd (FAP [2]; [7])	Kd (FAP [2]; [8])	IC50 (FAP [3]; [9])	IC50 (FAP [3]; [10])	tumor uptake after treatment with cold ligand (blocking) (FAP [4])	decrease of heart signal from 10 to 60 min after injection [5]	decrease of heart signal from 10 to 240 min after injection [5]	decrease of heart signal from 60 to 240 min after injection [5]	time of peak signal in heart after injection [5]	cellular uptake in HT-1080-FAP cells (HT-1080-FAP cells)	cellular uptake in HT-1080 cells (HT-1080 cells)	uptake in HT-1080-FAP tumors relative to HT-1080 tumors [6]	tumor SUVmean at 36 h after injection [1]	peak tumor SUVmean [1]	time of peak tumor SUVmean after injection [1]
N#C[C@@H]1CC(F)(F)CN1C(=O)CNC(=O)c1ccnc2ccc(OCCCN3CCN(C(=O)[C@H](CCCCNC(=O)CN4CCN(CC(=O)O)CCN(CC(=O)O)CCN(CC(=O)O)CC4)NC(=O)CCCC(=O)NC(CCCCNC(=O)CCCc4ccc(I)cc4)C(=O)O)CC3)cc12 (stereo partly shown) [TEFAPI-06]	37.9 fold	10.2 ± 2.56 nM	4.37 ± 0.81 nM	11.4 ± 1.15 nM	12.2 ± 0.65 nM	tumor uptake decreased										
Cc1cc(-c2ccc(NC(=O)CCCC(=O)N[C@@H](CCCCNC(=O)CN3CCN(CC(=O)O)CCN(CC(=O)O)CCN(CC(=O)O)CC3)C(=O)N3CCN(CCCOc4ccc5nccc(C(=O)NCC(=O)N6CC(F)(F)C[C@H]6C#N)c5c4)CC3)c(C)c2)ccc1N=Nc1ccc2c(S(=O)(=O)O)cc(S(=O)(=O)O)c(N)c2c1O [TEFAPI-07]	35.5 fold	7.81 ± 2.28 nM	19.1 ± 5.54 nM	27.7 ± 5 nM	17 ± 1.43 nM	tumor uptake decreased										
N#C[C@@H]1CC(F)(F)CN1C(=O)CNC(=O)c1ccnc2ccc(OCCCN3CCN(C(=O)[C@H](CCCCNC(=O)CN4CCN(CC(=O)[O-])CCN(CC(=O)[O-])CCN(CC(=O)[O-])CC4)NC(=O)CCCC(=O)NC(CCCCNC(=O)CCCc4ccc(I)cc4)C(=O)O)CC3)cc12.[68Ga+3] (stereo partly shown) [^68Ga-TEFAPI-06]		10.2 ± 2.56 nM					35.70% ± 4.74%	56.18% ± 2.50%	31.80% ± 1.15%	about 2 min	significant uptake	almost negligible uptake				
Cc1cc(-c2ccc(NC(=O)CCCC(=O)N[C@@H](CCCCNC(=O)CN3CCN(CC(=O)[O-])CCN(CC(=O)[O-])CCN(CC(=O)[O-])CC3)C(=O)N3CCN(CCCOc4ccc5nccc(C(=O)NCC(=O)N6CC(F)(F)C[C@H]6C#N)c5c4)CC3)c(C)c2)ccc1N=Nc1ccc2c(S(=O)(=O)O)cc(S(=O)(=O)O)c(N)c2c1O.[68Ga+3] [^68Ga-TEFAPI-07]		7.81 ± 2.28 nM					23.15% ± 2.16%	54.28% ± 4.98%	40.56% ± 5.25%	about 2 min	significant uptake	almost negligible uptake				
N#C[C@@H]1CC(F)(F)CN1C(=O)CNC(=O)c1ccnc2ccc(OCCCN3CCN(C(=O)[C@H](CCCCNC(=O)CN4CCN(CC(=O)[O-])CCN(CC(=O)[O-])CCN(CC(=O)[O-])CC4)NC(=O)CCCC(=O)NC(CCCCNC(=O)CCCc4ccc(I)cc4)C(=O)O)CC3)cc12.[86Y+3] (stereo partly shown) [^86Y-TEFAPI-06]													2- to 6 fold	0.602	0.73	18 h
Cc1cc(-c2ccc(NC(=O)CCCC(=O)N[C@@H](CCCCNC(=O)CN3CCN(CC(=O)[O-])CCN(CC(=O)[O-])CCN(CC(=O)[O-])CC3)C(=O)N3CCN(CCCOc4ccc5nccc(C(=O)NCC(=O)N6CC(F)(F)C[C@H]6C#N)c5c4)CC3)c(C)c2)ccc1N=Nc1ccc2c(S(=O)(=O)O)cc(S(=O)(=O)O)c(N)c2c1O.[86Y+3] [^86Y-TEFAPI-07]													2- to 6 fold	0.606	0.81	8 h

From paper PMC9157728, “Albumin Binder–Conjugated Fibroblast Activation Protein Inhibitor Radiopharmaceuticals for Cancer Therapy” (Journal of Nuclear Medicine, 2022)
